The values below come from US4599352A, “Antineoplastic platinum (IV) complexes and compositions” (priority 1984, dated 1986).

Data set [1] deals with IP L1210. Nature of the data set: Activity against IP-implanted L1210 leukemia sensitive to cisplatin, 30 day test (Table 3). It counts as in vivo, Female CD2Fl mice. As to the method:
(§1) Biological properties of the compounds of the present invention were determined following the protocol described in Cancer Chemotherapy Reports, Vol. 3, No. 3, 1972 which report is incorporated herein by reference.
Other known mechanisms of resistance for other classes of agents, such as gene amplification or target enzyme change or amplication, also need to be explored. The experiments summarized in Table 3 were conducted at the same time against both sublines using the same drug preparations. […] These experiments were repeated in a second laboratory as documented in Table 4. However, in these experiments the animals were held for 60 rather than 30 days to evaluate whether or not long-term survivors are produced after drug treatment in a more challenging setting.
This experiment (A8-00005 3LE31) was conducted at the Southern Research Institute, Birmingham, Ala. under the supervision of Dr. Daniel Griswold. The protocols were the same as those published previously (Geran et al., Cancer Chemotherapy Reports 3: No. 2, 1972 [Attachment 11]). 10^5 cells were implanted intraperitoneally in CD2Fl male mice on Day 0. Drug treatments were given intraperitoneally as single injections at the doses indicated on Days 1, 5 and 9 after tumor implantation. The diluent was saline except for NSC-271674 where 5% sodium bicarbonate was used. All drugs were prepared fresh on the day of injection, and all were administered in solution. Median survival times for both control and drug-treated mice were determined and expressed as a percentage (% T/C). Body weights were determined on Day 5 and expressed as a weight difference (body weight of the drug-treated animals minus that of the control animals in grams) (T-C). The diluent control animals lived a median of 8.4 days and gained 1.9 grams by Day 5 in this experiment. All animals, including Day 30 survivors, were used in the calculation of median survival times. The log10 change in tumor burden refers to the net log change in viable tumor cell population at the end of therapy (Rx) as compared to the start of therapy; e.g., a […] means that there was a […] and a 3 log change means there was a 1000-fold increase in tumor burden at the end of therapy. The tumor burden at the start of therapy was about 6.1×10^5 cells in this experiment.
These experiments (A8-00008 3LE31 and A8-00001 3DP31) were conducted concurrently at the Southern Research Institute, Birmingham, Ala. under the supervision of Dr. Daniel Griswold. See Table 4 for experimental details. The diluent control animals bearing L1210 leukemia lived a median of 8.6 days and gained 1.3 grams by Day 5. […] Female CD2Fl mice were used for these experiments.

Data set [2] deals with SC Implanted L1210 Leukemia. Briefly: Activity against SC implanted L1210 leukemia following intravenous administration, once daily Days 1-5 (Table 5). It counts as in vivo, CD2Fl male mice. The settings on record: for HNTD (highest nontoxic dose; animal weight difference ≥ -4.0 grams) / Optimal Dose: IV once daily Days 1-5. As for the experimental part:
as §1
In another type of experiment the same platinum complexes were directly compared against the SC implanted L1210 following intravenous administration (Table 5).
This experiment (A8-00004 3LE32) was conducted at the Southern Research Institute, Birmingham, Ala. under the supervision of Dr. Daniel Griswold. The protocols were the same as those published previously (Attachment 11). 10^6 cells were implanted subcutaneously in CD2Fl male mice on Day 0. Drug treatments were given intravenously once daily at the doses indicated on Days 1-5 after tumor implantation. The dosage range tested included the highest and lowest doses indicated in the Table as well as intermediate values which were determined by multiplying each dose in turn by 0.5 starting with the highest dose. The diluent was saline except for NSC-271674 for which 5% sodium bicarbonate was used. All drugs were prepared fresh on the day of injection, and all were administered in solution. Median survival times for both control and drug-treated mice were determined and expressed as a percentage (% T/C). Body weights were determined on Day 5 and expressed as a weight difference (body weight of the drug-treated animals minus that of the control animals in grams) (T-C).

For data set [3], the system named is bacteriophage lambda (lambda-lac Z fusion prophage). Briefly: Biochemical phage induction assay (BIA), induction of bacteriophage lambda (FIG. 1). It counts as cell-based, E. coli (BR 513). As for the experimental part:
The platinum complexes are tested using the BIA quantitative tube assay for dose-dependent induction of bacteriophage lambda according to a previously published procedure of Sarma, D. et al. Chem. Biol. Interactions, 46: 219-232 (1983), which is incorporated herein by reference. A permeable strain of E. coli (BR 513) containing lambda phage is used to test all samples. Expression time for the assay is 5 hours at 38° C. Fresh dilutions of test samples are made in saline (0.85%) on the day of the experiment. Samples are made at 10×final concentration and dispensed according to assay procedure. Final concentrations are 300 μg/ml, 200 μg/ml, 100 μg/ml, 60 μg/ml, 25 μg/ml, 10 μg/ml and a zero control.
This strain of bacteria contains a chromosomally integrated lambda-lac Z fusion phage under control of the lambda repressor. Treatment with DNA-damaging agents leads to derepression of prophage and synthesis of β-galacto-sidase, product of the lac Z gene. β-galactosidase is detected by reaction with a substrate (O-nitrophenyl-D-galactopyranoside (ONPG)) to give a yellow-colored product. Tubes are incubated at 28° C. (a few minutes to several hours to an A420 ≈0.5-1.0). Color development is stopped by the addition of base (1M Na2 CO3), and the yellow color is measured by absorbance at 420 nm. The exact time required for color development is recorded. Enzyme Units=100 A420 /thr where A420 =absorbance at 420 nm; thr =time required to develop yellow color in hours. One enzyme unit is the approximate value of an uninduced control tube at zero time.
This assay detects a wide variety of compounds which interact with DNA. […] This finding may support the hypothesis that platinum IV complexes are chemically less reactive. However, in vivo there is evidence that platinum IV complexes may be reduced to platinum (II) complexes [Pendyala, L. Proceedings 13th International Cancer Congress, Seatle, Wash., #3034, page 531, (1982)]. […] It is noted that the four isomers are not equal in their ability to induce the prophage.

Data set [4] relates to L1210 and L1210/Cisplatin leukemia. Nature of the data set: Total number of long-term survivors in Tables 2-4. The settings on record: for Total number of long-term survivors: Tables 2-4 summed. It counts as in vivo, CD2Fl mice. From the text: If one summarizes the data in Tables 2-4 by totalling the number of long-term survivors, unexpected differences among the isomers become apparent. For example, the trans l compound produced 30 long-term survivors.

Data set [5] deals with IP L1210 leukemia. Briefly: Mouse optimal (highest tolerated) dose, IP L1210 leukemia, Days 1, 5 and 9 schedule (Table 7). It counts as in vivo. From the text:
*IP L1210 leukemia, Days 1, 5 and 9 schedule. Highest tolerated dose in a
least 2 of 3 experiments (i.e,. animal weight difference (testcontrol)

Regarding `[Cl][Pt-2]1([Cl])([Cl])([Cl])[NH2+][C@H]2CCCC[C@@H]2[NH2+]1` [trans (d), (1S, 2S)-Tetrachloro-trans-1,2-cyclohexanediamine platinum (IV)], in data set [1] (1 mg/kg/dose), the “30 Day Survivors/Total” value is reported as 0/6, the “Approx. Log10 Change in Tumor Burden at End of RX” value (“Approx. Log10 Change” for short) was roughly 3.0 log10 and the “Median % T/C” value is listed as 113%. In data set [1] (2 mg/kg/dose), the “30 Day Survivors/Total” value is on record as 0/6, the “Approx. Log10 Change” value is on record as roughly 2.5 log10 and the “Median % T/C” value is 144%. In data set [1] (4 mg/kg/dose), the “30 Day Survivors/Total” value is recorded as 2/6, the “Approx. Log10 Change” value is recorded as roughly -1.2 log10 and the “Median % T/C” value was determined as 209%. Also, in data set [1] (8 mg/kg/dose), the “30 Day Survivors/Total” value is listed as 3/6, the “Approx. Log10 Change” value is roughly -5.9 log10 and the “Median % T/C” value worked out at 348%. In data set [1] (16 mg/kg/dose), the “30 Day Survivors/Total” value is recorded as 0/6 and the “Median % T/C” value is reported as 96%. In data set [2] (5 mg/kg/inj IV), the “Body Weight Difference” value was -6.4 Grams, the “Median % T/C” value was 172% and the “Median Survival Time” value turned out to be 17.8 days. Moreover, in data set [2], the “HNTD (highest nontoxic dose; animal weight difference ≥ -4.0 grams)” value was 2.5 mg/kg/inj and the “Optimal Dose” value stood at 5.0 mg/kg/inj. Moreover, in data set [3], the “Concentration of optimal effect in prophage induction” value was 25 µg/mL; the “Effectiveness in inducing prophage” value is “most effective inducers among the four”; the “Prophage induction, enzyme units” value is given as “about 104 enzyme units”. In addition, in data set [4], the “Total number of long-term survivors” value turned out to be 27. The “Mouse Optimal Dose (highest tolerated dose in at least 2 of 3 experiments)” value (shortened to “Mouse Optimal Dose”) in data set [5] is reported as 8 mg/kg.

On to “Tetrachloro-cis-1,2-cyclohexanediamine platinum (IV)”, for which the “30 Day Survivors/Total” value in data set [1] (1 mg/kg/dose) is given as 0/6; in data set [1] (2 mg/kg/dose), 0/6; in data set [1] (4 mg/kg/dose), 0/6; in data set [1] (8 mg/kg/dose), 2/6; in data set [1] (16 mg/kg/dose), 1/6. In addition, the “Approx. Log10 Change” value in data set [1] (1 mg/kg/dose) is roughly 2.8 log10; in data set [1] (2 mg/kg/dose), roughly 2.6 log10; in data set [1] (4 mg/kg/dose), roughly 2.4 log10; in data set [1] (8 mg/kg/dose) it was roughly -5.9 log10; in data set [1] (16 mg/kg/dose), roughly -5.7 log10. Moreover, the “Median % T/C” value in data set [1] (1 mg/kg/dose) came to 125%; in data set [1] (2 mg/kg/dose), 139%; in data set [1] (4 mg/kg/dose), 148%; in data set [1] (8 mg/kg/dose), 325%; in data set [1] (16 mg/kg/dose), 267%; in data set [2] (5 mg/kg/inj IV), 133%. Moreover, the “Body Weight Difference” value in data set [2] (5 mg/kg/inj IV) was -3.3 Grams. For the same compound, in data set [2] (5 mg/kg/inj IV), the “Median Survival Time” value turned out to be 13.7 days. Moreover, in data set [2], the “Optimal Dose” value was 5.0 mg/kg/inj. The “Effectiveness in inducing prophage” value in data set [3] was “practically inert”. The “Total number of long-term survivors” value in data set [4] stood at 13. In addition, the “Relative biological activity” value in data set [4] (mouse, in vivo) is on record as “relatively lower biological activity”. In addition, in data set [5], the “Mouse Optimal Dose” value stood at 8 mg/kg.

On to `N.N.[Cl][Pt][Cl]` [Cisplatin, cis-diamminedichloroplatinum (II), reference compound], for which the “30 Day Survivors/Total” value in data set [1] (1.25 mg/kg/dose) is on record as 0/6; in data set [1] (5 mg/kg/dose), 0/6; in data set [1] (10 mg/kg/dose), 3/6; in data set [1] (20 mg/kg/dose), 0/6. Further, the “Approx. Log10 Change” value in data set [1] (1.25 mg/kg/dose) was roughly 3.0 log10; in data set [1] (5 mg/kg/dose), roughly 2.2 log10; in data set [1] (10 mg/kg/dose), roughly -5.9 log10; in data set [1] (20 mg/kg/dose), roughly 2.4 log10. Also, the “Median % T/C” value in data set [1] (1.25 mg/kg/dose) was 116%; in data set [1] (5 mg/kg/dose) it was 162%; in data set [1] (10 mg/kg/dose), 348%; in data set [1] (20 mg/kg/dose), 148%; in data set [2] (5 mg/kg/inj IV), 138%. Further, the “Body Weight Difference” value in data set [2] (5 mg/kg/inj IV) is given as -5.7 Grams. For the same compound, in data set [2] (5 mg/kg/inj IV), the “Median Survival Time” value was determined as 14.3 days. The “Optimal Dose” value in data set [2] is reported as 5 mg/kg/inj. For the same compound, the “Mouse Optimal Dose” value in data set [5] is 10 mg/kg.

Consider `N[C@@H]1CCCC[C@H]1N.O=C([O-])c1ccc(C(=O)[O-])c(C(=O)[O-])c1.[H+].[Pt+2]` [Carboxyphthalato Platinum, carboxyphthalatocyclohexanediamine platinum (II), reference compound], for which the “30 Day Survivors/Total” value is 1/6 in data set [1] (3.13 mg/kg/dose); 5/6 in data set [1] (6.25 mg/kg/dose); 6/6 in data set [1] (12.5 mg/kg/dose); 0/6 in data set [1] (25 mg/kg/dose); 0/6 in data set [1] (50 mg/kg/dose). In addition, the entries for the “Approx. Log10 Change” value in data set [1] (3.13 mg/kg/dose), in data set [1] (6.25 mg/kg/dose) and in data set [1] (12.5 mg/kg/dose) were roughly 1.4 log10, roughly -5.9 log10 and roughly -5.9 log10, respectively. For the same compound, the “Median % T/C” value is 174% in data set [1] (3.13 mg/kg/dose); 348% in data set [1] (6.25 mg/kg/dose); 348% in data set [1] (12.5 mg/kg/dose); 73% in data set [1] (25 mg/kg/dose); 50% in data set [1] (50 mg/kg/dose); 124% in data set [2] (6.25 mg/kg/inj IV). For the same compound, the “Median % T/C” value in data set [2] (12.5 mg/kg/inj IV) was 165%. Also, the “Body Weight Difference” value in data set [2] (6.25 mg/kg/inj IV) is given as -2.6 Grams; in data set [2] (12.5 mg/kg/inj IV), -6.1 Grams. Moreover, the “Median Survival Time” value stood at 12.8 days in data set [2] (6.25 mg/kg/inj IV) and 17.0 days in data set [2] (12.5 mg/kg/inj IV). Moreover, the “HNTD (highest nontoxic dose; animal weight difference ≥ -4.0 grams)” value in data set [2] was determined as 6.25 mg/kg/inj. Moreover, the “Optimal Dose” value in data set [2] is 12.5 mg/kg/inj. Further, the “Mouse Optimal Dose” value in data set [5] is listed as 12.5 mg/kg.
